Test results: the NIST ThermoML archive (doi:10.1016/j.jct.2018.05.016)

Experiment: mn = molality of the nth substance listed, in mol/kg
Details: 100 kPa, Liquid; for speed of sound: Frequency=3 MHz, Single path-length method; for mass density: Vibrating tube method

OCCO [1,2-ethanediol] + O
Details | mass density, m1 = 0.09889 [kg/m3] | mass density, m1 = 0.1989 [kg/m3] | mass density, m1 = 0.2997 [kg/m3] | mass density, m1 = 0.3948 [kg/m3] | mass density, m1 = 0.5016 [kg/m3] | speed of sound, m1 = 0.09889 [m/s] | speed of sound, m1 = 0.1989 [m/s] | speed of sound, m1 = 0.2997 [m/s] | speed of sound, m1 = 0.3948 [m/s] | speed of sound, m1 = 0.5016 [m/s]
293.15 K | 999.06 | 999.88 | 1000.68 | 1001.41 | 1002.2 | 1485.3 | 1488.3 | 1491.2 | 1493.9 | 1496.8
303.15 K | 996.47 | 997.26 | 998.03 | 998.73 | 999.48 | 1511.1 | 1513.8 | 1516.2 | 1518.7 | 1521.2

OCCOCCO [diethylene glycol] + O
Details | mass density, m1 = 0.09849 [kg/m3] | mass density, m1 = 0.1974 [kg/m3] | mass density, m1 = 0.295 [kg/m3] | mass density, m1 = 0.4101 [kg/m3] | mass density, m1 = 0.5006 [kg/m3] | speed of sound, m1 = 0.09849 [m/s] | speed of sound, m1 = 0.1974 [m/s] | speed of sound, m1 = 0.295 [m/s] | speed of sound, m1 = 0.4101 [m/s] | speed of sound, m1 = 0.5006 [m/s]
293.15 K | 999.65 | 1001.03 | 1002.36 | 1003.86 | 1004.99 | 1487.7 | 1493.1 | 1498.1 | 1504.1 | 1508.3
303.15 K | 997.07 | 998.39 | 999.64 | 1001.05 | 1002.15 | 1513.1 | 1517.6 | 1522 | 1526.9 | 1530.6

OCC(O)CO [glycerol] + O
Details | mass density, 293.15 K [kg/m3] | mass density, 298.15 K [kg/m3] | mass density, 303.15 K [kg/m3] | mass density, 308.15 K [kg/m3] | speed of sound, 293.15 K [m/s] | speed of sound, 298.15 K [m/s] | speed of sound, 303.15 K [m/s] | speed of sound, 308.15 K [m/s]
m1 = 0.01 | 998.45 | 997.31 | 995.87 | 994.25 | 1483.2 | 1497 | 1509.3 | 1519.9
m1 = 0.03 | 998.87 | 997.71 | 996.3 | 994.68 | 1484 | 1497.8 | 1510 | 1520.6
m1 = 0.05 | 999.29 | 998.12 | 996.72 | 995.09 | 1484.8 | 1498.6 | 1510.7 | 1521.2

OCCOCCOCCO [triethylene glycol] + O
Details | mass density, m1 = 0.0965 [kg/m3] | mass density, m1 = 0.2002 [kg/m3] | mass density, m1 = 0.292 [kg/m3] | mass density, m1 = 0.3986 [kg/m3] | mass density, m1 = 0.4988 [kg/m3] | speed of sound, m1 = 0.0965 [m/s] | speed of sound, m1 = 0.2002 [m/s] | speed of sound, m1 = 0.292 [m/s] | speed of sound, m1 = 0.3986 [m/s] | speed of sound, m1 = 0.4988 [m/s]
293.15 K | 1000.31 | 1002.46 | 1004.29 | 1006.36 | 1008.22 | 1489.9 | 1498 | 1504.8 | 1513.1 | 1520.5
303.15 K | 997.73 | 999.86 | 1001.67 | 1003.69 | 1005.54 | 1514.9 | 1521.8 | 1528 | 1535.1 | 1541.7

O [water] + OCC(O)CO
m2 = 0
Details | speed of sound [m/s]
298.15 K | 1495.9
303.15 K | 1508.5
308.15 K | 1519.1

O [water] + OCCO
Details | speed of sound [m/s]
303.15 K, m2 = 0 | 1508.5

O [water] + OCCOCCO
Details | speed of sound [m/s]
303.15 K, m2 = 0 | 1508.5

O [water] + OCCOCCOCCO
Details | speed of sound [m/s]
303.15 K, m2 = 0 | 1508.5
